From patent publication US20220275387A1, “TRANSCRIPTION FACTOR NtERF221 AND METHODS OF USING THE SAME” (University of Virginia Patent Foundation, priority 2019, published 2022)
“Also recorded” adds a separate entry of the source.

Legend:
[1] = tested on: NtAO, NtODC, NtPMT, NtQPT, and NtQS; test: RT-qPCR of nicotine biosynthesis structural genes in transgenic tobacco seedlings; assay type: in vivo, Nicotiana tabacum; conditions: two-week-old seedlings, 100 μM MeJA for 8 hours, normalized to NtEF-1α
Method: (§1) Plant materials and transformation. Tobacco plants (Nicotiana tabacum L. var. K326) were used for all the tests and genetic transformations described herein. Wild-type or transgenic seeds were germinated on Murashige and Skoog (MS) plates. For quantitative RT-PCR, germinated small seedlings were transferred onto larger MS plates and grown vertically until two weeks old before treated with 0.1% DMSO (control) or 100 μM MeJA. For TLC and GC-MS analysis, germinated seedlings were transferred in soil and grown under normal condition till five weeks old before DMSO or MeJA treatment. Agrobacterium tumefaciens strain LBA4404 harboring each transgenic vector was used for genetic transformation of tobacco following the experiment procedure described previously (Horsch et al., 1985). At least eight T0 transgenic plants were confirmed by genomic DNA PCR and then self-pollinated to produce T1 generation. […]
RNA isolation and quantitative reverse transcription-PCR (RT-qPCR). […] The DNA-eliminated total RNA was then reverse-transcribed using QuantiTect reverse transcription kit (Qiagen). Quantitative PCR was conducted iTaq™ Universal SYBR® Green supermix (Bio-Rad Laboratories) on an CFX96™ Real-Time PCR detection system (Bio-Rad Laboratories). […]

[2] = tested on: Nicotiana tabacum L. var. K326; test: GC-MS quantification of nicotine in leaf of wild-type and transgenic tobacco; assay type: in vivo; conditions: five-week-old plants, DMSO or MeJA
Method: as §1
Gas chromatography-mass spectrometry (GC-MS). […] Nicotine concentration was measured on a Shimadzu GCMS QP2010 plus system with a protocol developed previously (Goossens et al., (2003); Zhang et al., (2012)). […]
To further quantify nicotine concentration for the comparison between transgenic lines and the wild-types, GC-MS analysis was applied with total alkaloids extracted from the leaf tissue of five-week-old wild-type or transgenic plants treated with DMSO (control) or MeJA. […]

[3] = tested on: Nicotiana tabacum L. var. K326; test: TLC assay for nicotine accumulation in leaves of T2 overexpression lines; assay type: in vivo; conditions: T2 transgenic plants, 5-week-old, constitutive or conditional overexpression
Method: Plant materials and transformation. Tobacco plants (Nicotiana tabacum L. var. K326) were used for all the tests and genetic transformations described herein. Wild-type or transgenic seeds were germinated on Murashige and Skoog (MS) plates. For quantitative RT-PCR, germinated small seedlings were transferred onto larger MS plates and grown vertically until two weeks old before treated with 0.1% DMSO (control) or 100 μM MeJA. For TLC and GC-MS analysis, germinated seedlings were transferred in soil and grown under normal condition till five weeks old before DMSO or MeJA treatment. […]
Each gene was put into three different expression constructs respectively under the control of three different promoters described above (FIG. 3A). […] For each construct, at least eight lines were confirmed to have the transgene stably integrated into the genome by genomic PCR, the intact structure of the transgene was validated and relative level of transgene expression measured by RT-PCR using gene specific primers as is standard practice. The level of nicotine was assessed by TLC analysis to quickly identify the transformants with higher nicotine accumulation than the wild-type. […] T1 lines were similarly self-pollinated and the resulting T2 plants analyzed. […]

NtERF221: AP2/ERF family transcription factor transgene (CQ808982, SEQ ID NO: 1) overexpressed in tobacco K326
JA-induced transcript accumulation of NtAO, NtODC, NtPMT, NtQPT, and NtQS versus wild-type [1]: far greater; also recorded: greatly up-regulated
nicotine concentration in the leaf, comparison among transgenic lines [2]: highest nicotine concentration
nicotine accumulation versus wild-type (TLC) [3]: significantly elevated nicotine accumulation
